In ChEMBL document CHEMBL5030563, “Structure-Based Design of Dual-Acting Compounds Targeting Adenosine A2A Receptor and Histone Deacetylase as Novel Tumor Immunotherapeutic Agents” (J Med Chem, 2021):

Columns and labels:
[1] = Clearance in ICR mouse at 5 mg/kg, iv up to 24 hrs by LC-MS/MS analysis; type: ADME, organism-based; details: in vivo
Histone deacetylase 11 = biological target: T1, Histone deacetylase 11 (Homo sapiens, UniProt Q96DB2); assay: Inhibition of HDAC11 (unknown origin) assessed as release of 7-amino-4-methylcoumarin incubated in room temperature for 15 min measured by Spectra max microtitre plate reader
T1 sequence (Q96DB2 whole entry): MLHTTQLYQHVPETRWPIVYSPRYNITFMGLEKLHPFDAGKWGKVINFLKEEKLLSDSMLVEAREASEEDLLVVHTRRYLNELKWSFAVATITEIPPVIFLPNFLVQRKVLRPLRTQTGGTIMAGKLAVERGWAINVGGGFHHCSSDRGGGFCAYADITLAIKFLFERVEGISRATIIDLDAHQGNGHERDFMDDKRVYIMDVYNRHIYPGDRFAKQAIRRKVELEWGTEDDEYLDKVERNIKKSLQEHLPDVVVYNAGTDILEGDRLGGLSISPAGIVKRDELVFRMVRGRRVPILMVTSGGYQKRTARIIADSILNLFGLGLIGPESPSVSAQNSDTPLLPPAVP

[2] = biological target: T2, Protein deacetylase HDAC6 (Homo sapiens, UniProt Q9UBN7); assay: Inhibition of HDAC6 (unknown origin) assessed as release of 7-amino-4-methylcoumarin incubated in room temperature for 15 min measured by Spectra max microtitre plate reader
T2 sequence (Q9UBN7 whole entry): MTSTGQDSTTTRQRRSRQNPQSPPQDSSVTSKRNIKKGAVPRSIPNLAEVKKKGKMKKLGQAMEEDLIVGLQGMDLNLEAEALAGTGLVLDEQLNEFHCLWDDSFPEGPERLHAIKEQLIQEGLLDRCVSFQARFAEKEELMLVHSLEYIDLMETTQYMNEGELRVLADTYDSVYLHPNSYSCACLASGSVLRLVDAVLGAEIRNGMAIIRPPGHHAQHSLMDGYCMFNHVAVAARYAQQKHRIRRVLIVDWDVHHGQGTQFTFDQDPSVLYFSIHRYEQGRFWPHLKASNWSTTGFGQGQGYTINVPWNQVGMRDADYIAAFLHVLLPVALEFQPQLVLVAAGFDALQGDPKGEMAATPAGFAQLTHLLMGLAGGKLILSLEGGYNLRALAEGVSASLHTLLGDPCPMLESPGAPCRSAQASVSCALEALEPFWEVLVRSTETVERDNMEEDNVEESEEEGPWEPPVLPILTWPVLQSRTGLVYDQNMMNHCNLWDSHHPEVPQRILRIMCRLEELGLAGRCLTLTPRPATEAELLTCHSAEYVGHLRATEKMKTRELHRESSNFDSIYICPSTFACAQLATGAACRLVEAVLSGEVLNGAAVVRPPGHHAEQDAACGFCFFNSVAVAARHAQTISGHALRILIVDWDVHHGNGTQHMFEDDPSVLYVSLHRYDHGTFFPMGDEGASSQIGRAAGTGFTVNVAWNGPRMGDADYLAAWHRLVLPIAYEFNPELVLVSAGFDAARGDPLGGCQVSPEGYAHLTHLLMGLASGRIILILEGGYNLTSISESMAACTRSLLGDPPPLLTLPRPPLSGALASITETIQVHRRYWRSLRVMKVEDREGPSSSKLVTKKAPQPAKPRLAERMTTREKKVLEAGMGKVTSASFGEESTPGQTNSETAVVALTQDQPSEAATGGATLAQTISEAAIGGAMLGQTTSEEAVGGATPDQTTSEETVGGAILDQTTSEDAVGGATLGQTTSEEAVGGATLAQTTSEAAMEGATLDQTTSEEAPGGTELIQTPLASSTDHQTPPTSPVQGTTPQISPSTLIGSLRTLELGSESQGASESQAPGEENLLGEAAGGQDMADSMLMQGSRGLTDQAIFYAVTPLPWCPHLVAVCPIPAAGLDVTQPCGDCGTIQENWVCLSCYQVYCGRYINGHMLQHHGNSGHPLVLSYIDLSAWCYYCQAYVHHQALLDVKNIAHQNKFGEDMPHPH

[3] = Cmax in ICR mouse at 20 mg/kg, po by LC-MS/MS analysis; type: ADME, organism-based; set-up: route oral, dose 20 mg/kg; details: in vivo
[4] = AUC (0 to infinity) in ICR mouse at 5 mg/kg, iv up to 24 hrs by LC-MS/MS analysis; type: ADME, organism-based; set-up: route intravenous, dose 5 mg/kg, time <=24; details: in vivo
MC-38 = assay: Antitumour activity against mouse MC38 cells in C57BL/6 mouse assessed as tumour growth inhibition at 60 mg/kg, ip, bid measured after 9 days relative to control; type: functional; details: MC-38, ip, 216 h, time 9 day, read-out: TGI
[5] = Volume of distribution in ICR mouse at 5 mg/kg, iv up to 24 hrs by LC-MS/MS analysis; type: ADME, organism-based; details: in vivo
Histone deacetylase 1 = Histone deacetylase 1 (Homo sapiens, UniProt Q13547); assay: Inhibition of HDAC1 (unknown origin) assessed as release of 7-amino-4-methylcoumarin incubated in room temperature for 15 min measured by Spectra max microtitre plate reader
[6] = Half life in ICR mouse at 20 mg/kg, ip up to 24 hrs by LC-MS/MS analysis; type: ADME, organism-based; details: in vivo
[7] = Oral bioavailability in ICR mouse at 20 mg/kg by LC-MS/MS analysis; type: ADME, organism-based; details: in vivo
Histone deacetylase 8 = biological target: T3, Histone deacetylase 8 (Homo sapiens, UniProt Q9BY41); assay: Inhibition of HDAC8 (unknown origin) assessed as release of 7-amino-4-methylcoumarin incubated in room temperature for 15 min measured by Spectra max microtitre plate reader
T3 sequence (Q9BY41 whole entry): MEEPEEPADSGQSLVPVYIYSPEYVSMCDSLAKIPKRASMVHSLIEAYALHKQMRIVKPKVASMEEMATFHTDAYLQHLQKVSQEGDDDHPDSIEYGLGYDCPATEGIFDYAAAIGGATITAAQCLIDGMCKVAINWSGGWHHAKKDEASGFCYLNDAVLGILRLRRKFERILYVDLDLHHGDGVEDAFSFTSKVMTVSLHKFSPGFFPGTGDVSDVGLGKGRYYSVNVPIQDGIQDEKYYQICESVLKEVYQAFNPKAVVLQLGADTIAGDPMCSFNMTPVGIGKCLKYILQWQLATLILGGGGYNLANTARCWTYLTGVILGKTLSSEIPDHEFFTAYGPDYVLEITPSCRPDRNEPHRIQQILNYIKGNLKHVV

Histone deacetylase 1, sequence (Q13547 whole entry): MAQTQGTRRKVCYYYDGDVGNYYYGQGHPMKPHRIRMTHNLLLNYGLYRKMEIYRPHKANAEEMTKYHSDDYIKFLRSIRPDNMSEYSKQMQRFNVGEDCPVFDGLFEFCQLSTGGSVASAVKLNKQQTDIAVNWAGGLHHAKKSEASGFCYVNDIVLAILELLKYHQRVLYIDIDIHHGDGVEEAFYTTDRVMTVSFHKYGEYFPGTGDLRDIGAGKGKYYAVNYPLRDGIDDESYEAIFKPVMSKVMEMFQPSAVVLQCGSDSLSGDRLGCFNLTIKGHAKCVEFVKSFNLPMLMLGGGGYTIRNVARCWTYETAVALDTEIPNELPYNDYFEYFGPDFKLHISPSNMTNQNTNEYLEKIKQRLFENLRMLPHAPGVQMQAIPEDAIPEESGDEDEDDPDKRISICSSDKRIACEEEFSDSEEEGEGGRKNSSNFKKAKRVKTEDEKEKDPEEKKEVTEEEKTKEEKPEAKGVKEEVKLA

## Nc1ccccc1NC(=O)c1ccc(CCn2ncc3c2nc(N)n2nc(-c4ccco4)nc32)cc1
[1]
  clearance: 59 mL/min/kg
Histone deacetylase 11
  IC50: > 10 µM
[2]
  IC50: > 10 µM
[3]
  Cmax: 1590 ng/mL
[4]
  AUC(0-inf): 1470 ng·h/mL
MC-38
  inhibition in vivo at 60 mg/kg: 95.3%
[5]
  Vd: 1.19 L/kg
Histone deacetylase 1
  IC50: 0.0802 µM
[6]
  half-life: 1.89 h
[7]
  bioavailability: 30.3%
Histone deacetylase 8
  IC50: > 10 µM
